# Measured values published in the supplement of paper PMC11061612.
# Key:
# Test in all cases: Bliss excess, mean over the matrix (fraction); higher = more synergy
# [1] = system: IMR-5 (Neuroblastoma)
# Method in brief: (§1)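 Cell lines in DMEM/F12 or RPMI with 10% FBS were plated in 1536-well plates, held 24 hours at 37°C, 5% CO2, then given two-drug dose matrices for 72 hours (DMSO typically 0.2%). Viability was read by CellTiter-Glo 2.0 luminescence and scaled as inhibition from 0 (vehicle wells) to 1 (blank wells). Combination Emax is the second-highest inhibition in the matrix; Bliss excess is observed combination effect minus expected EA + EB − EA·EB, EA and EB being single-agent effects.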
# [2] = system: LC4-1 (B-Lymphoblastic Leukemia)
# Method in brief: as §1
# [3] = system: EW-13 (Ewing's Sarcoma)
# Method in brief: as §1
# [4] = system: VMRC-LCD (Lung Adenocarcinoma)
# Method in brief: as §1
# [5] = system: ASH-3 (Thyroid Gland Carcinoma)
# Method in brief: as §1
# [6] = system: GI-1 (Glioblastoma)
# Method in brief: as §1
# [7] = system: KYSE-150 (Esophageal Squamous Cell Carcinoma)
# Method in brief: as §1
# [8] = system: KINGS-1 (Low Grade Glioma)
# Method in brief: as §1
# [9] = system: EBC-1 (Squamous Cell Lung Carcinoma)
# Method in brief: as §1
# [10] = system: A704 (Kidney Carcinoma)
# Method in brief: as §1
# [11] = system: PFSK-1 (Other Solid Carcinomas)
# Method in brief: as §1
# [12] = system: KU-19-19 (Bladder Carcinoma)
# Method in brief: as §1
# [13] = system: NCI-H1573 (Lung Adenocarcinoma)
# Method in brief: as §1
# [14] = system: BV-173 (Chronic Myelogenous Leukemia)
# Method in brief: as §1
Structure (SMILES),Bliss excess [1],Bliss excess [2],Bliss excess [3],Bliss excess [4],Bliss excess [5],Bliss excess [6],Bliss excess [7],Bliss excess [8],Bliss excess [9],Bliss excess [10],Bliss excess [11],Bliss excess [12],Bliss excess [13],Bliss excess [14]
"NC1(C(=O)N[C@@H](CCO)c2ccc(Cl)cc2)CCN(c2ncnc3[nH]ccc23)CC1 [Capivasertib] + C[C@@H]1COCCN1C2=NC(=NC(=C2)C3(CC3)[S@](=N)(=O)C)C4=C5C=CNC5=NC=C4 [AZD6738] (first compound max 10 µM, 7x7, partner max 10 µM)",0.019,0.0099,0.0091,-0.0185,-0.0468,-0.0606,-0.0545,-0.0197,-0.0315,-0.0571,-0.0956,-0.0748,-0.0522,-0.0271
"Cn1cnc2c(F)c(Nc3ccc(Br)cc3Cl)c(C(=O)NOCCO)cc21 [Selumetinib] + C=CCn1c(=O)c2cnc(Nc3ccc(N4CCN(C)CC4)cc3)nc2n1-c1cccc(C(C)(C)O)n1 [AZD1775] (first compound max 10 µM, partner max 1 µM)",0.0121,0.0314,-0.0742,-0.0272,-0.0192,-0.0387,0.0705,0.0173,0.0508,-0.0211,-0.0549,-0.0308,-0.0331,-0.0026
"COc1nnc2ccc(N3CCC(c4ccc(OCCN5CCN(C)C(=O)[C@H]5C)cc4)CC3)nn12 [AZD5153] + Cn1cnc2c(F)c(Nc3ccc(Br)cc3Cl)c(C(=O)NOCCO)cc21 [Selumetinib] (first compound max 1 µM, 7x7, partner max 10 µM)",-0.0047,0.012,-0.0577,-0.0401,-0.0338,0.0286,0.0195,-0.029,0.0979,-0.0077,0.0031,-0.0007,0.0491,-0.0503
"COc1cccc(OCCCN)c1-c1cc(Nc2cnc(C#N)cn2)n[nH]1 [Prexasertib] + CCc1c2c(nc3ccc(O)cc13)-c1cc3c(c(=O)n1C2)COC(=O)[C@]3(O)CC [SN-38] (first compound max 1 µM, 7x7, partner max 0.3 µM)",-0.011,-0.0868,-0.0697,0.023,0.0624,0.0188,0.135,0.0121,-0.0694,-0.0496,-0.0513,0.0024,0.0357,-0.0594
"COc1nnc2ccc(N3CCC(c4ccc(OCCN5CCN(C)C(=O)[C@H]5C)cc4)CC3)nn12 [AZD5153] + CCN(CCO)CCCOc1ccc2c(Nc3cc(CC(=O)Nc4cccc(F)c4)[nH]n3)ncnc2c1 [AZD2811] (first compound max 1 µM, 7x7, partner max 1 µM)",-0.0151,-0.0739,0.0251,0.0435,-0.0284,0.0977,-0.0134,-0.0374,-0.0274,0.0278,-0.0478,-0.0741,-0.0621,-0.0561
"CC(=O)c1c(C)c2cnc(Nc3ccc(N4CCNCC4)cn3)nc2n(C2CCCC2)c1=O [Palbociclib] + CC1(C)CCC(CN2CCN(c3ccc(C(=O)NS(=O)(=O)c4ccc(NCC5CCOCC5)c([N+](=O)[O-])c4)c(Oc4cnc5[nH]ccc5c4)c3)CC2)=C(c2ccc(Cl)cc2)C1 [Venetoclax] (first compound max 10 µM, 7x7, partner max 1 µM)",0.0953,-0.0396,-0.0311,-0.0377,-0.0086,-0.0394,-0.0225,0.0075,0.0208,-0.0575,-0.0425,-0.0135,0.0244,0.0021
"COc1cc2ncnc(Nc3ccc(F)c(Cl)c3)c2cc1OCCCN1CCOCC1 [Gefitinib] + CC(C)n1c(=O)n(C)c2cnc3cc(F)c(-c4ccc(OCCCN5CCCCC5)nc4)cc3c21 [AZD1390] (first compound max 10 µM, 7x7, partner max 0.3 µM)",-0.0516,-0.0408,-0.0568,-0.0405,-0.0537,-0.013,-0.0834,-0.0594,-0.0434,-0.0325,-0.0688,-0.0831,-0.104,-0.0778
"CC1(C)CCC(CN2CCN(c3ccc(C(=O)NS(=O)(=O)c4ccc(NCC5CCOCC5)c([N+](=O)[O-])c4)c(Oc4cnc5[nH]ccc5c4)c3)CC2)=C(c2ccc(Cl)cc2)C1 [Venetoclax] + C=CCn1c(=O)c2cnc(Nc3ccc(N4CCN(C)CC4)cc3)nc2n1-c1cccc(C(C)(C)O)n1 [AZD1775] (first compound max 1 µM, partner max 1 µM)",0.0237,0.0355,-0.0523,-0.0174,-0.0662,-0.0127,-0.0452,0.0375,0.0315,-0.0283,-0.0171,-0.023,-0.0513,-0.0206
"CC(=O)Nc1cccc(-n2c(=O)n(C3CC3)c(=O)c3c(Nc4ccc(I)cc4F)n(C)c(=O)c(C)c32)c1 [Trametinib] + Cc1nc(-c2cn3c(n2)-c2ccc(-c4cnn(C(C)(C)C(N)=O)c4)cc2OCC3)n(C(C)C)n1 [Taselisib] (first compound max 1 µM, 7x7, partner max 10 µM)",0.0467,0.107,-0.0107,-0.0267,0.127,0.0885,0.123,0.151,0.0674,-0.0243,-0.0681,0.0597,0.088,0.0965
"CS(=O)(=O)CCNCc1ccc(-c2ccc3ncnc(Nc4ccc(OCc5cccc(F)c5)c(Cl)c4)c3c2)o1 [Lapatinib] + NC1(c2ccc(-c3nc4ccn5c(=O)[nH]nc5c4cc3-c3ccccc3)cc2)CCC1 [MK-2206] (first compound max 10 µM, 7x7, partner max 10 µM)",–,-0.0073,–,-0.0273,0.0178,0.0275,0.0159,0.032,–,–,-0.0286,-0.0103,-0.0055,–
"CN(C)CCCOc1ccc(-c2ccc3ncc4c(c3c2)n(C2CCOCC2)c(=O)n4C)cn1 [AZD0156] + O=C(c1cc(Cc2n[nH]c(=O)c3ccccc23)ccc1F)N1CCN(C(=O)C2CC2)CC1 [Olaparib] (first compound max 3 µM, partner max 3 µM)",0.0884,0.25,–,-0.0489,-0.0311,0.0337,0.116,-0.0057,0.0413,0.026,0.0954,0.0781,0.0002,0.092
"C=CCn1c(=O)c2cnc(Nc3ccc(N4CCN(C)CC4)cc3)nc2n1-c1cccc(C(C)(C)O)n1 [AZD1775] + C1CN(CCC1(C(=O)N[C@@H](CCO)C2=CC=C(C=C2)Cl)N)C3=NC=NC4=C3C=CN4 [Capivasertib] (first compound max 3 µM, partner max 3 µM)",-0.0214,-0.0233,–,-0.0226,-0.0086,0.0543,0.0064,-0.0687,-0.0602,-0.0259,-0.0268,-0.0174,-0.0318,0.0291
"COc1nnc2ccc(N3CCC(c4ccc(OCCN5CCN(C)C(=O)[C@H]5C)cc4)CC3)nn12 [AZD5153] + CN(CC[C@H](CSC1=CC=CC=C1)NC2=C(C=C(C=C2)S(=O)(=O)NC(=O)C3=CC=C(C=C3)N4CCC(CC4)[C@H](C5=CC=CC=C5C6=CC=C(C=C6)Cl)O)S(=O)(=O)C(F)(F)F)CCO [AZD4320] (first compound max 1 µM, 7x7, partner max 1 µM)",0.0807,–,-0.0243,–,0.107,–,0.0321,–,0.0628,0.0754,0.0145,0.0829,0.0178,-0.0879
"CC(=O)c1c(C)c2cnc(Nc3ccc(N4CCNCC4)cn3)nc2n(C2CCCC2)c1=O [Palbociclib] + CN(CC[C@H](CSC1=CC=CC=C1)NC2=C(C=C(C=C2)S(=O)(=O)NC(=O)C3=CC=C(C=C3)N4CCC(CC4)[C@H](C5=CC=CC=C5C6=CC=C(C=C6)Cl)O)S(=O)(=O)C(F)(F)F)CCO [AZD4320] (first compound max 10 µM, 7x7, partner max 1 µM)",0.0866,–,-0.121,–,-0.0104,–,-0.109,–,-0.0226,-0.0376,0.016,-0.0482,-0.109,-0.0524
"C[C@@H](c1ccc2nccn2c1)n1nnc2ncc(-c3cnn(C)c3)nc21 [Savolitinib] + CN(CC[C@H](CSC1=CC=CC=C1)NC2=C(C=C(C=C2)S(=O)(=O)NC(=O)C3=CC=C(C=C3)N4CCC(CC4)[C@H](C5=CC=CC=C5C6=CC=C(C=C6)Cl)O)S(=O)(=O)C(F)(F)F)CCO [AZD4320] (first compound max 1 µM, 7x7, partner max 1 µM)",-0.0399,–,-0.0577,–,-0.0078,–,-0.0775,–,-0.0067,-0.0766,0.0076,-0.0259,-0.0473,-0.0004
"Cc1cc2ncnn2cc1Nc1ncc2c(n1)n(C1CCOCC1)c(=O)n2C [AZD7648] + C[C@@H]1COCCN1C2=NC(=NC(=C2)C3(CC3)[S@](=N)(=O)C)C4=C5C=CNC5=NC=C4 [AZD6738] (first compound max 10 µM, 7x7, partner max 10 µM)",0.0088,0.0469,0.0039,0.0143,0.0459,0.018,-0.0061,0.0412,0.0513,0.0177,–,-0.0127,0.0363,-0.0194
"COc1cccc(OCCCN)c1-c1cc(Nc2cnc(C#N)cn2)n[nH]1 [Prexasertib] + O=C(c1cc(Cc2n[nH]c(=O)c3ccccc23)ccc1F)N1CCN(C(=O)C2CC2)CC1 [Olaparib] (first compound max 1 µM, 7x7, partner max 10 µM)",-0.0097,-0.0432,-0.0562,-0.0955,0.027,-0.0364,0.0491,-0.0979,-0.0052,-0.0973,–,0.0061,0.0418,0.0169
"COc1cccc(OCCCN)c1-c1cc(Nc2cnc(C#N)cn2)n[nH]1 [Prexasertib] + CN(C)CCCOc1ccc(-c2ccc3ncc4c(c3c2)n(C2CCOCC2)c(=O)n4C)cn1 [AZD0156] (first compound max 1 µM, 7x7, partner max 1 µM)",-0.015,-0.0113,0.0557,-0.0075,0.0014,0.0084,-0.0386,-0.0927,-0.0297,0.0033,–,-0.0046,-0.0309,-0.0676
